In article PMC6385203, “Mutations in the palm domain disrupt modulation of acid-sensing ion channel 1a currents by neuropeptides” (Scientific Reports, 2019):
Peptide text beside a SMILES is read from it.

Molecular target: T1, ASIC1a N416C (Homo sapiens, UniProt P78348, N416C)
T1 construct: expressed in transfected cells; host or cells: Xenopus laevis oocytes injected with cRNA
T1 sequence (P78348 1-528 N416C): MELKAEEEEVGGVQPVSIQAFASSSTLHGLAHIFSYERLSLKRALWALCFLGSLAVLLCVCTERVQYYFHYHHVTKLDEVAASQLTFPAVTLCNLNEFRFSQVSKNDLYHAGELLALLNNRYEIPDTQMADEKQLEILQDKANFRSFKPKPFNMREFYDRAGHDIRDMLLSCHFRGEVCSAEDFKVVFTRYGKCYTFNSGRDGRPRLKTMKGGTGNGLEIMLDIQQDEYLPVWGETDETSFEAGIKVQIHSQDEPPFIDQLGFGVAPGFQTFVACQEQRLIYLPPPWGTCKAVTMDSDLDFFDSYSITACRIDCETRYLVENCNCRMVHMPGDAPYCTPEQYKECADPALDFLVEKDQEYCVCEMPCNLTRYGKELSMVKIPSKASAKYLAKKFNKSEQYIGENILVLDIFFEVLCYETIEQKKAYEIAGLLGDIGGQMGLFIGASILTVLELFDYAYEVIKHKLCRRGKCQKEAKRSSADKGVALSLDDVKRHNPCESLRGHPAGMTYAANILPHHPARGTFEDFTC
Experiment: Isust/Ipeak, TEVC in Xenopus oocytes
Assay type: cell-based
Details: pH5, n = 6–7, mean ± SEM, read-out: EC50 of FRRFa (Isust/Ipeak)
Excerpt: To test the docking predictions, Cys mutants of palm and other proximal residues predicted to interact with the peptide were made. Since most of these residues are large and hydrophilic, the mutation to Cys changed the side chain properties substantially. Therefore, and because MTSET modification of many palm residues leads to currents with a large sustained component[22] that may render the measurement of FRRFa effects difficult, we exposed only the Cys mutants of hydrophobic residues (I307C and V414C) to 1 mM MTSET prior to the experiments with FRRFa. Asp212 was mutated to Gly (and not Cys), since we have previously observed that this residue is very sensitive to mutation, and that it is in most ASIC1a orthologs and even in several human ASIC1a clones a Gly. […] Due to the extremely small FRRFa-induced Isust/Ipeak ratio changes it was not possible to determine the EC50 of FRRFa on these mutants. To learn more about the nature of the Isust/Ipeak ratio increase by the N416C mutation, we measured the EC50 of FRRFa, which was 6 ± 2 μM (Fig. 6e, n = 6–7). […]
Electrophysiological measurements were performed 1–2 days after cRNA injection. Ion currents were recorded using two-electrode voltage-clamp at a holding potential of −60 mV with a Dagan TEV-200 amplifier (Minneapolis, MN). […] The amplitude of the sustained current was measured in the last two seconds of the pH5 perfusion. […]

N=C(N)NCCC[C@H](NC(=O)[C@H](CCCNC(=N)N)NC(=O)[C@@H](N)Cc1ccccc1)C(=O)N[C@@H](Cc1ccccc1)C(N)=O [FRRFa, Phe-Arg-Arg-Phe-amide] (H-FRRF-NH2)
EC50: 6 ± 2 µM
